Values quoted from earlier work, collected in US20030133985A1, “Formulation of an erodible, gastric retentive oral dosage form using in vitro disintegration test data” (priority 2001, published 2003).

Settings: at 20° C.

- water solubility: 1%
Compound: CC1(C)O[C@@H]2[C@@H](CO[C@@]3(COS(N)(=O)=O)OC(C)(C)O[C@@H]23)O1 [topiramate]
